From publication PMC6795431, “Identification and characterisation of capidermicin, a novel bacteriocin produced by Staphylococcus capitis” (PLoS ONE, 2019)
“Also recorded” adds a separate entry of the source. Where no end group is shown, it is not given here. The star is where a group is joined. For = O=C*

Legend:
proteinase K = target: T1, proteinase K (Parengyodontium album, UniProt P06873); settings: previously observed; cited from earlier work
T1 construct: purchased Sigma-Aldrich
Procedure: (§1) Similar findings have been reported for epidermicin NI01 [42] and lacticin Q [41]. While capidermicin is insensitive to α-chymotrypsin and pepsin, a 70% reduction in activity was observed when it was treated with proteinase K or trypsin. […] Resistance to proteases has been reported for other staphyloco ...

trypsin = settings: cited from earlier work
Procedure: as §1

[1] = Temperature stability, bioactivity by agar well diffusion; format: physicochemical; settings: purified peptide, 10, 30, 40, 50, 80, 90 or 121°C for 15 minutes; agar well diffusion with L. lactis HP
Procedure: (§2) The susceptibility of purified capidermicin peptide to temperature, pH and protease enzymes was investigated through well diffusion assays. To determine temperature stability the purified peptide was subjected to 10, 30, 40, 50, 80, 90, 121°C for 15 minutes. Bioactivity was then determined by carrying out an agar well diffusion assay with L. lactis HP as the bacterial indicator. To evaluate the susceptibility of the peptide to varying pH values, the purified peptide solution was adjusted to pH 2–11 using 1M HCl or 1M NaOH, respectively. After a brief vortex, the peptide was incubated at room temperature for 15 minutes, and the bioactivity was again determined with the well diffusion assay with L. lactis HP. The susceptibility of the peptide to proteolytic cleavage was analysed using trypsin, α-chymotrypsin, pepsin and proteinase K (Sigma-Aldrich). Protease enzymes were dissolved in 100 mM Tris-HCl– 10 mM CaCl2, to a final concentration of 100 μg/ml. Preparations of capidermicin were incubated with the various enzymes at 37°C for 4 hours and the bioactivity of capidermicin was reassessed using the well diffusion assay described above.

[2] = pH stability, bioactivity by agar well diffusion; format: physicochemical; settings: 15 minutes at room temperature, agar well diffusion with L. lactis HP
Procedure: as §2

T1 sequence (P06873 106-384): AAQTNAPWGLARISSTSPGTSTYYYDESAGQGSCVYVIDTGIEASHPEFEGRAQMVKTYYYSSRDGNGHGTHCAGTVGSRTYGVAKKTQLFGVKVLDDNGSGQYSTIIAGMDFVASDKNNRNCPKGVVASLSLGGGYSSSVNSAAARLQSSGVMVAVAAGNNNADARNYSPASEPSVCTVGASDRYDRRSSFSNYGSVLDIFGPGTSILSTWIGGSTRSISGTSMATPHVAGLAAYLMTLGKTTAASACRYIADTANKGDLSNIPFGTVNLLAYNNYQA

| Substance | Reduction in activity for proteinase K (proteinase K) [%] | Reduction in activity for trypsin (trypsin) [%] | Antimicrobial activity following heat treatment [1] | Bioactivity following exposure to pH 2–8 ([2]; pH adjusted with 1M HCl or 1M NaOH) | Decrease in zone of inhibition at pH 9–11 ([2]; pH adjusted with 1M NaOH) [%] |
| --- | --- | --- | --- | --- | --- |
| epidermicin NI01 | 75 | 50 |  |  |  |
| For-MSKVISALSKYGPKAVNWAKNHKGQIANWLLHGLSIPDIVQNVKNAVGIK [capidermicin] |  |  | retained; also recorded: unaffected | full bioactivity | 70 |
